Reference: US20230002359A1, “PESTICIDALLY ACTIVE FUSED BICYCLIC HETEROAROMATIC COMPOUNDS” (priority 2019, published 2023)

Key:
Type in all cases: in vivo
[1] = test system: Diabrotica Balteata (Corn Root Worm); assay: Example B1: Diabrotica balteata (corn root worm), maize sprouts sprayed, L2 larvae; settings: 96 h, application rate of 200 ppm, 4 days after infestation, L2 larvae, read-out: control in at least one of the two categories (mortality or growth inhibition)
Outline: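 Maize sprouts on agar were sprayed with aqueous test solutions made from 10′000 ppm DMSO stocks, dried, then infested with 6 to 10 L2 larvae per well. Mortality and growth inhibition were scored against untreated samples 4 days after infestation.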

[2] = test system: Euschistus heros (Neotropical Brown Stink Bug); assay: Example B2: Euschistus heros (neotropical brown stink bug), soybean leaves sprayed, N2 nymphs; settings: 120 h, application rate of 200 ppm, 5 days after infestation, N2 nymphs, read-out: control in at least one of the two categories (mortality or growth inhibition)
Procedure: Soybean leaves on agar in 24-well microtiter plates were sprayed with aqueous test solutions prepared from 10′000 ppm DMSO stock solutions. After drying the leaves were infested with N2 nymphs. The samples were assessed for mortality and growth inhibition in comparison to untreated samples 5 days after infestation.

[3] = test system: Chilo suppressalis (Striped Rice Stemborer); assay: Example B3: Chilo suppressalis (striped rice stemborer), artificial diet, L2 larvae; settings: 144 h, application rate of 200 ppm, 6 days after infestation, L2 larvae, read-out: control in at least one of the three categories (mortality, anti-feedant effect, or growth inhibition)
Outline: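 First, artificial diet was treated with aqueous solutions prepared from 10'000 ppm DMSO stocks; second, after drying, L2 larvae (6-8/well) were added; third, effects were assessed at 6 days against untreated controls, counting control when any of three categories was higher.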

[4] = test system: Plutella xylostella (Diamond Back Moth); assay: Example B4: Plutella xylostella (diamond back moth), artificial diet, eggs, 24-well; settings: 192 h, application rate of 200 ppm, 8 days after infestation, eggs, read-out: control in at least one of the two categories (mortality or growth inhibition)
Procedure: 24-well microtiter plates with artificial diet were treated with aqueous test solutions prepared from 10′000 ppm DMSO stock solutions by pipetting. After drying, Plutella eggs were pipetted through a plastic stencil onto a gel blotting paper and the plate was closed with it. The samples were assessed for mortality and growth inhibition in comparison to untreated samples 8 days after infestation.

[5] = test system: Spodoptera littoralis (Egyptian Cotton Leaf Worm); assay: Example B7: Spodoptera littoralis (Egyptian cotton leaf worm), cotton leaf discs sprayed, L1 larvae; settings: foliar, 72 h, application rate of 200 ppm, 3 days after infestation, L1 larvae, read-out: control in at least one of the three categories (mortality, anti-feedant effect, or growth inhibition)
Outline: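 Leaf discs on agar sprayed with aqueous dilutions of 10′000 ppm DMSO stocks, dried, then infested with five L1 larvae. Mortality, anti-feeding and growth inhibition scored versus untreated 3 days after infestation; control given when any category exceeds untreated.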

[6] = test system: Myzus persicae (Green Peach Aphid); assay: Example B6: Myzus persicae (green peach aphid) intrinsic activity, sucrose solution; settings: 120 h, test rate of 12 ppm, 5 days after infestation, intrinsic activity, read-out: mortality
Procedure: Test compounds prepared from 10′000 ppm DMSO stock solutions were applied by pipette into 24-well microtiter plates and mixed with sucrose solution. The plates were closed with a stretched Parafilm. A plastic stencil with 24 holes was placed onto the plate and infested pea seedlings were placed directly on the Parafilm. The infested plate was closed with a gel blotting paper and another plastic stencil and then turned upside down. The samples were assessed for mortality 5 days after infestation.

COCN(c1ncnc2c(C(F)(F)F)cc(C(F)(F)F)cc12)C(C)c1ncnn1-c1ccc(C#N)cn1 (centres unmarked) [P.7, 6-[5-[1-[[6,8-bis(trifluroomethyl)quina-zolin-4-yl]-(methoxymethyl)amino]ethyl]-1,2,4-triazol-1-yl]pyridine-3-carbonitrile]
≥ 80%: percent control (mortality or growth inhibition) at 200 ppm [1] | percent control (mortality or growth inhibition) at 200 ppm [2] | percent control (mortality, anti-feedant effect or growth inhibition) at 200 ppm [3] | percent control (mortality or growth inhibition) at 200 ppm [4] | percent control (mortality, anti-feedant effect or growth inhibition) at 200 ppm [5]

CC(c1ncnn1-c1ccc(C#N)cn1)N(Cc1ccccc1)c1ncnc2c(C(F)(F)F)cc(C(F)(F)F)cc12 (centres unmarked) [P.8, 6-[5-[1-[benzyl-[6,8-bis(trifluoromethyl)quina-zolin-4-yl]amino]ethyl]-1,2,4-triazol-1-yl]pyridine-3-carbonitrile]
≥ 80%: percent control (mortality or growth inhibition) at 200 ppm [1] | percent control (mortality or growth inhibition) at 200 ppm [2] | percent control (mortality, anti-feedant effect or growth inhibition) at 200 ppm [3] | percent control (mortality or growth inhibition) at 200 ppm [4] | percent control (mortality, anti-feedant effect or growth inhibition) at 200 ppm [5]

COc1nc(N(CC2CC2)C(C)c2ncnn2-c2ncccn2)c2cc(C(F)(F)F)cc(Cl)c2n1 (centres unmarked) [P.36, 8-chloro-N-(cyclopropylmethyl)-2-methoxy-N-[1-(2-pyrimidin-2-yl-1,2,4-triazol-3-yl)ethyl]-6-(trifluoromethyl)quinazolin-4-amine]
≥ 80%: percent control (mortality or growth inhibition) at 200 ppm [1] | percent control (mortality or growth inhibition) at 200 ppm [2]

CC(Nc1ncnc2c(Cl)cc(C(F)(F)F)cc12)c1ncnn1-c1ncccn1 (centres unmarked) [P.43, 8-chloro-N-[1-(2-pyrimidin-2-yl-1,2,4-triazol-3-yl)ethyl]-6-(trifluoromethyl)quinazolin-4-amine]
≥ 80%: percent control (mortality or growth inhibition) at 200 ppm [1] | percent control (mortality or growth inhibition) at 200 ppm [2] | percent control (mortality, anti-feedant effect or growth inhibition) at 200 ppm [3] | percent control (mortality or growth inhibition) at 200 ppm [4]

CC(Nc1ncnc2c(Br)cc(C(F)(F)F)cc12)c1ncnn1-c1ncccn1 (centres unmarked) [P.47, 8-bromo-N-[1-(2-pyrimidin-2-yl-1,2,4-triazol-3-yl)ethyl]-6-(trifluoromethyl)quinazolin-4-amine]
≥ 80%: percent control (mortality or growth inhibition) at 200 ppm [1] | percent control (mortality or growth inhibition) at 200 ppm [2] | percent control (mortality, anti-feedant effect or growth inhibition) at 200 ppm [3] | percent control (mortality or growth inhibition) at 200 ppm [4] | percent control (mortality, anti-feedant effect or growth inhibition) at 200 ppm [5]

CC(c1nccnc1-n1nccn1)N(CC1CC1)c1ncnc2c(C(F)(F)F)cc(C(F)(F)F)cc12 (centres unmarked) [P.75, N-(cyclopropylmethyl)-N-[1-[3-(triazol-2-yl)pyrazin-2-yl]ethyl]-6,8-bis(trifluoromethyl)quina-zolin-4-amine]
≥ 80%: percent control (mortality or growth inhibition) at 200 ppm [1] | percent control (mortality or growth inhibition) at 200 ppm [2] | percent control (mortality, anti-feedant effect or growth inhibition) at 200 ppm [3] | percent control (mortality or growth inhibition) at 200 ppm [4]

CC(c1nccnc1-n1nccn1)N(CC1CC1)c1ncnc2c(C(F)(F)F)cc(Br)cc12 (centres unmarked) [P.78, 6-bromo-N-(cyclopropylmethyl)-N-[1-[3-(triazol-2-yl)pyrazin-2-yl]ethyl]-8-(trifluoromethyl)quinazolin-4-amine]
≥ 80%: percent control (mortality or growth inhibition) at 200 ppm [1] | percent control (mortality or growth inhibition) at 200 ppm [2] | percent control (mortality, anti-feedant effect or growth inhibition) at 200 ppm [3] | percent control (mortality or growth inhibition) at 200 ppm [4]

CC(Nc1nccc2c(C(F)(F)F)cc(C(F)(F)F)cc12)c1ncnn1-c1ncccn1 (centres unmarked) [P.83, N-[1-(2-pyrimidin-2-yl-1,2,4-triazol-3-yl)ethyl]-5,7-bis(trifluoromethyl)isoquinolin-1-amine]
≥ 80%: percent control (mortality or growth inhibition) at 200 ppm [1] | percent control (mortality or growth inhibition) at 200 ppm [2] | percent control (mortality, anti-feedant effect or growth inhibition) at 200 ppm [3] | percent control (mortality or growth inhibition) at 200 ppm [4]

CC(c1ncnn1-c1ncc(Br)cn1)N(C)c1ncnc2c(C(F)(F)F)cc(C(F)(F)F)cc12 (centres unmarked) [P.89, N-[1-[2-(5-bromopyrimidin-2-yl)-1,2,4-triazol-3-yl]ethyl]-N-methyl-6,8-bis(trifluoromethyl)quina-zolin-4-amine]
≥ 80%: percent control (mortality or growth inhibition) at 200 ppm [1] | percent control (mortality or growth inhibition) at 200 ppm [2] | percent control (mortality, anti-feedant effect or growth inhibition) at 200 ppm [3] | percent control (mortality or growth inhibition) at 200 ppm [4]

CC(c1nccnc1-c1ncccn1)N(C)c1ncnc2c(C(F)(F)F)cc(C(F)(F)F)cc12 (centres unmarked) [P.107, N-methyl-N-[1-(3-pyrimidin-2-ylpyrazin-2-yl)ethyl]-6,8-bis(trifluoromethyl)quina-zolin-4-amine]
≥ 80%: percent control (mortality or growth inhibition) at 200 ppm [1] | percent control (mortality or growth inhibition) at 200 ppm [2] | percent control (mortality, anti-feedant effect or growth inhibition) at 200 ppm [3] | percent control (mortality or growth inhibition) at 200 ppm [4] | percent control (mortality, anti-feedant effect or growth inhibition) at 200 ppm [5]

Cc1cnc(-c2ccc(C#N)cn2)c([C@H](C)N(C)c2ncnc3c(C(F)(F)F)cc(C(F)(F)F)cc23)n1 [P.175, 6-[3-[(1S)-1-[[6,8-bis(trifluoromethyl)quina-zolin-4-yl]-methyl-amino]ethyl]-5-methyl-pyraizn-2-yl]pyridine-3-carbonitrile]
≥ 80%: percent control (mortality or growth inhibition) at 200 ppm [1] | percent control (mortality or growth inhibition) at 200 ppm [2] | percent control (mortality, anti-feedant effect or growth inhibition) at 200 ppm [3] | percent control (mortality or growth inhibition) at 200 ppm [4]

C[C@@H](c1ncnn1-c1ncccn1)N(C)c1ncnc2c(C(F)(F)F)cc(Br)cc12 [P.208, 6-bromo-N-methyl-N-[(1S)-1-(2-pyrimidin-2-yl-1,2,4-triazol-3-yl)ethyl]-8-(trifluoromethyl)quinazolin-4-amine]
≥ 80%: percent control (mortality or growth inhibition) at 200 ppm [1] | percent control (mortality, anti-feedant effect or growth inhibition) at 200 ppm [3] | percent control (mortality or growth inhibition) at 200 ppm [4] | mortality at 12 ppm [6] | percent control (mortality, anti-feedant effect or growth inhibition) at 200 ppm [5]

C[C@@H](c1ncnn1-c1ccc(C#N)cn1)N(C)c1ncnc2c(C(F)(F)C3CC3)cc(C(F)(F)F)cc12 [P.213, 6-[5-[(1S)-1-[[8-[cyclopropyl(difluoro)meth-yl]-6-(trifluoromethyl)quinazolin-4-yl]-methyl-amino]ethyl]-1,2,4-triazol-1-yl]pyridine-3-carbonitrile]
≥ 80%: percent control (mortality or growth inhibition) at 200 ppm [1] | percent control (mortality or growth inhibition) at 200 ppm [2] | percent control (mortality, anti-feedant effect or growth inhibition) at 200 ppm [3] | percent control (mortality or growth inhibition) at 200 ppm [4] | percent control (mortality, anti-feedant effect or growth inhibition) at 200 ppm [5]

CC(Nc1ncnc2c(Br)cc(OC(F)(F)F)cc12)c1ncnn1-c1ncccn1 (centres unmarked) [P.229, 8-bromo-N-[1-(2-pyrimidin-2-yl-1,2,4-triazol-3-yl)ethyl]-6-(trifluoromethoxy)quinazo-line-4-amine]
≥ 80%: percent control (mortality or growth inhibition) at 200 ppm [1] | percent control (mortality, anti-feedant effect or growth inhibition) at 200 ppm [3] | percent control (mortality or growth inhibition) at 200 ppm [4] | mortality at 12 ppm [6] | percent control (mortality, anti-feedant effect or growth inhibition) at 200 ppm [5]

CC(c1ncnn1-c1ccc(C#N)cn1)N(C)c1ncnc2c(OC(F)F)cc(Br)cc12 (centres unmarked) [P.230, 6-[5-[1-[[6-bromo-8-(difluoromethoxy)quinazo-lin-4-yl]-methyl-amino]ethyl]-1,2,4-triazol-1-yl]pyridine-3-carbonitrile]
≥ 80%: percent control (mortality or growth inhibition) at 200 ppm [1] | percent control (mortality, anti-feedant effect or growth inhibition) at 200 ppm [3] | percent control (mortality or growth inhibition) at 200 ppm [4] | mortality at 12 ppm [6] | percent control (mortality, anti-feedant effect or growth inhibition) at 200 ppm [5]

CC(Nc1ncnc2c(OC(F)F)cc(Br)cc12)c1ncnn1-c1ncccn1 (centres unmarked) [P.243, 6-bromo-8-(difluoromethoxy)-N-[1-(2-pyrimidin-2-yl-1,2,4-triazol-3-yl)ethyl]quinazolin-4-amine]
≥ 80%: percent control (mortality or growth inhibition) at 200 ppm [1] | percent control (mortality, anti-feedant effect or growth inhibition) at 200 ppm [3] | percent control (mortality or growth inhibition) at 200 ppm [4] | mortality at 12 ppm [6] | percent control (mortality, anti-feedant effect or growth inhibition) at 200 ppm [5]
